The text below walks through data of patent US6339045B1, “N-(unsubstituted or substituted)-4-substituted-6-(unsubstituted or substituted)phenoxy-2-pyridinecarboxamides or thiocarboxamides, processes for producing the same, and herbicides” (Kureha Kagaku Kogyo Kabushiki Kaisha, priority 1995, dated 2002).

Common to all, as to test: Herbicidal effect by foliage and soil treatment
Type in all cases: in vivo
Common to all, as to details: 10 g ai/10a, evaluated after 14 days

For experiment [1], the system named is ivyleafspeedwell (Veronica hederaefolia). Summed up: (§1)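 Seedlings grown in granular soil in a 19–25 °C greenhouse to the cotyledon–two-leaf stage were sprayed over foliage and soil with compound in Tween 20/water at a set application rate. Growth was scored on a rating scale against untreated plants after 14 days.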
The subject of experiment [2] is cleavers (Galium aparine). Summed up: as §1
The test system of experiment [3] is common chickweed (Stellaria media). Put shortly:
as §1

Experiment [4] has as its system field bindweed (Convolvulus arvensis). Put shortly: as §1
Experiment [5] concerns common blackjack (Bidens pilosa). Summed up: as §1
Experiment [6] concerns velvetleaf (Abutilon theophrasti). Summed up: as §1
Experiment [7] concerns sicklepod (Cassia obtusifolia). Summed up:
as §1

Experiment [8] concerns wild chamomile (Matricaria chamomilla). Put shortly: as §1
Experiment [9] has as its system black nightshade (Solanum nigrum). Put shortly: as §1
The test system of experiment [10] is kediock (Sinapis arvensis). Summed up:
as §1

In experiment [11] the test system is redroot pigweed (Amaranthus retroflexus). Summed up:
as §1

Consider `CNC(=S)c1cc(OC)cc(Oc2cccc(C(F)(F)F)c2)n1` [Compound I-47], for which the “herbicidal activity rating, VH (Veronica hederaefolia)” value (from here on “herbicidal activity rating, VH”) in experiment [1] was 5 (percentage of weeds killed was not less than 80%). For the same compound, in experiment [2], the “herbicidal activity rating, GA (Galium aparine)” value (shortened to “herbicidal activity rating, GA”) was 5 (percentage of weeds killed was not less than 80%). Moreover, in experiment [3], the “herbicidal activity rating, SM (Stellaria media)” value (from here on “herbicidal activity rating, SM”) was 4 (percentage of weeds killed was not less than 60% and less than 80%). The “herbicidal activity rating, CA (Convolvulus arvensis)” value (shortened to “herbicidal activity rating, CA”) in experiment [4] is reported as 5 (percentage of weeds killed was not less than 80%). The “herbicidal activity rating, BP (Bidens pilosa)” value (from here on “herbicidal activity rating, BP”) in [5] was 3 (percentage of weeds killed was not less than 40% and less than 60%). Further, the “herbicidal activity rating, AT (Abutilon theophrasti)” value in [6] is reported as 5 (percentage of weeds killed was not less than 80%). For the same compound, the “herbicidal activity rating, CO (Cassia obtusifolia)” value (shortened to “herbicidal activity rating, CO”) in experiment [7] is reported as 5 (percentage of weeds killed was not less than 80%). The “herbicidal activity rating, MC (Matricaria chamomilla)” value (from here on “herbicidal activity rating, MC”) in experiment [8] is 3 (percentage of weeds killed was not less than 40% and less than 60%). For the same compound, the “herbicidal activity rating, SN (Solanum nigrum)” value (shortened to “herbicidal activity rating, SN”) in [9] is given as 5 (percentage of weeds killed was not less than 80%). Moreover, the “herbicidal activity rating, SA (Sinapis arvensis)” value (from here on “herbicidal activity rating, SA”) in experiment [10] is on record as 5 (percentage of weeds killed was not less than 80%). The “herbicidal activity rating, AR (Amaranthus retroflexus)” value (“herbicidal activity rating, AR” for short) in experiment [11] is reported as 5 (percentage of weeds killed was not less than 80%).
For `COc1cc(Oc2cccc(C(F)(F)F)c2)nc(C(=O)NC2CC2)c1` [Compound I-48, N-cyclopropyl-4-methoxy-6-{3-(trifluoromethyl)phenoxy}-2-pyridine carboxamide], the “herbicidal activity rating, VH” value in [1] was 5 (percentage of weeds killed was not less than 80%). Also, in experiment [2], the “herbicidal activity rating, GA” value was 5 (percentage of weeds killed was not less than 80%). For the same compound, the “herbicidal activity rating, SM” value in experiment [3] is 5 (percentage of weeds killed was not less than 80%). For the same compound, the “herbicidal activity rating, CA” value in [4] is recorded as 5 (percentage of weeds killed was not less than 80%). Besides, in experiment [5], the “herbicidal activity rating, BP” value was 4 (percentage of weeds killed was not less than 60% and less than 80%). For the same compound, the “herbicidal activity rating, AT (Abutilon theophrasti)” value in experiment [6] is 5 (percentage of weeds killed was not less than 80%). In addition, the “herbicidal activity rating, CO” value in experiment [7] is given as 5 (percentage of weeds killed was not less than 80%). Further, the “herbicidal activity rating, MC” value in [8] is on record as 5 (percentage of weeds killed was not less than 80%). Moreover, the “herbicidal activity rating, SN” value in [9] was 5 (percentage of weeds killed was not less than 80%). Besides, the “herbicidal activity rating, SA” value in experiment [10] was 5 (percentage of weeds killed was not less than 80%). Moreover, the “herbicidal activity rating, AR” value in experiment [11] is 5 (percentage of weeds killed was not less than 80%).
As to `COc1cc(Oc2cccc(C(F)(F)F)c2)nc(C(=O)NC2CCC2)c1` [Compound I-49], the “herbicidal activity rating, VH” value in experiment [1] was 5 (percentage of weeds killed was not less than 80%). Also, in experiment [2], the “herbicidal activity rating, GA” value was 5 (percentage of weeds killed was not less than 80%). Moreover, the “herbicidal activity rating, SM” value in [3] is 5 (percentage of weeds killed was not less than 80%). In addition, the “herbicidal activity rating, CA” value in experiment [4] is 5 (percentage of weeds killed was not less than 80%). Further, the “herbicidal activity rating, BP” value in experiment [5] is listed as 5 (percentage of weeds killed was not less than 80%). Besides, the “herbicidal activity rating, AT (Abutilon theophrasti)” value in [6] is 5 (percentage of weeds killed was not less than 80%). Besides, the “herbicidal activity rating, CO” value in experiment [7] is 5 (percentage of weeds killed was not less than 80%). Moreover, in [8], the “herbicidal activity rating, MC” value is listed as 5 (percentage of weeds killed was not less than 80%). In addition, in experiment [9], the “herbicidal activity rating, SN” value was 5 (percentage of weeds killed was not less than 80%). Further, the “herbicidal activity rating, SA” value in experiment [10] is on record as 5 (percentage of weeds killed was not less than 80%). The “herbicidal activity rating, AR” value in [11] is 5 (percentage of weeds killed was not less than 80%).
